{"source": "patent US8193315B2", "about": "(Sanford-Burnham Medical Research Institute, priority 2001, dated 2012)", "format_in_all_cases": "cell-based", "key": {"NR1/NR3B receptors": {"molecular_target": "T1, NR1/NR3B receptors (Rattus norvegicus, UniProt P35439+Q8VHN2)", "T1 construct": "Full-length cDNAs encoding NMDA receptor subunits were linearized and used as templates for synthesis of cRNA; expressed in transfected cells; host or cells: Xenopus laevis oocytes injected with cRNA", "T1 sequence (Q8VHN2 25-1002, other chains not shown)": "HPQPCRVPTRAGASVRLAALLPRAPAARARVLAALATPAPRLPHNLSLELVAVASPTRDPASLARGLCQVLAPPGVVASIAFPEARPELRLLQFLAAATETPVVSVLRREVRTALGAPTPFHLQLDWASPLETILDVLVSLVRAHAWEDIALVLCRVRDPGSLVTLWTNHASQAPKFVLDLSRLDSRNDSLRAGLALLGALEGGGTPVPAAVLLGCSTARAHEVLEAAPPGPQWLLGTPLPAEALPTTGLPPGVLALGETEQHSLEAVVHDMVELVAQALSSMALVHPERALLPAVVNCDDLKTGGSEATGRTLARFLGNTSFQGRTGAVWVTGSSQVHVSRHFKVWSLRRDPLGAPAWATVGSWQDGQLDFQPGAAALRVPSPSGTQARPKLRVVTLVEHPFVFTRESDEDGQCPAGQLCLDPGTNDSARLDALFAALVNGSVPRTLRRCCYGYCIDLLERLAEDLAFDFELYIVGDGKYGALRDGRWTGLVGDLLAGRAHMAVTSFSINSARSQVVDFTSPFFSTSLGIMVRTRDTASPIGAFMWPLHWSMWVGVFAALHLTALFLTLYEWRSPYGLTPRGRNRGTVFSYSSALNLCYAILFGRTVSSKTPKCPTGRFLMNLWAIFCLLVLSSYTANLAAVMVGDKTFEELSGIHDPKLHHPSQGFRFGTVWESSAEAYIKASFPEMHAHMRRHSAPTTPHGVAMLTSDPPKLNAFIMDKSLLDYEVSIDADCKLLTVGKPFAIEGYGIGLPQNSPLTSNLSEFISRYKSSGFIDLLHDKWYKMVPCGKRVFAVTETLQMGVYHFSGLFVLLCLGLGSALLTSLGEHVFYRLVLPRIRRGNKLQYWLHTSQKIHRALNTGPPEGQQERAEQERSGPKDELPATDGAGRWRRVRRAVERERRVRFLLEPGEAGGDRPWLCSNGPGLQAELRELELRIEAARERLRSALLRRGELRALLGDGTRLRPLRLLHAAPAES", "assay": "Glycine-evoked whole-oocyte currents of NR1/NR3B receptors, dual-electrode voltage clamp in Xenopus oocytes", "text": "NR3B cRNA for oocyte expression was produced as follows. The full-length NR3B cDNA was constructed in the pCMV6-XL4 vector (OriGene Technologies, Inc., Rockville, Md.), which contains a T7 promoter upstream of the cDNA insert. […] The truncated cRNA could potentially encode a dominant negative form of NR3B. Therefore, a new vector was constructed to facilitate production of exclusively full-length NR3B cRNA. Construction of this vector proceeded as follows. NR1 cDNA was excised from the pGEM-HE/NR1 vector (a gift from S. F. Heinemann) by digestion with EcoRI and the two ends of the truncated pGEM-HE vector were re-ligated. The truncated pGEM-HE vector retained the 5′ and 3′ UTRs of the X. laevis β-globin gene for high level protein expression in frog oocytes. The SfoI-KpnI fragment of truncated pGEM-HE, which contains the T7 promoter, was replaced with the PvuII-KpnI fragment of pBluescript II KS, which contains the T3 promoter, to generate pJC32. The abbreviated multiple cloning site of pJC32 was then replaced with the multiple cloning site from pcDNA3.1(+) (Invitrogen, Carlsbad, Calif.) by ligating the 102 bp PmeI fragment of pcDNA3.1(+) into the 3 kb SmaI-EcoRV fragment of pJC32 to generate pJC34. […] The resulting vector, pJC39, contains three rare restriction sites downstream of the multiple cloning site to facilitate linearization prior to in vitro transcription using T3 RNA polymerase.\nThe full-length NR3B (B4 form) cDNA was then excised from pCMV6-XL4 by digestion with EcoRI and XbaI, and the 3.2 kb fragment was ligated into EcoRI/XbaI-digested pJC39. The resulting vector, pJC42, was linearized with PmeI, and in vitro transcription was performed using the mMessage mMachine T3 kit (Ambion, Inc., Austin, Tex.) according to the manufacturer's instructions.\nMicropipettes were filled with 3 M KCl."}, "NR1/NR3A receptors": {"molecular_target": "T2, NR1/NR3A receptors (Rattus norvegicus, UniProt P35439+Q9R1M7)", "T2 construct": "Full-length cDNAs encoding NMDA receptor subunits were linearized and used as templates for synthesis of cRNA; expressed in transfected cells; host or cells: Xenopus laevis oocytes injected with cRNA", "T2 sequence (Q9R1M7 24-1115 isoform Q9R1M7-2 limits assumed, other chains not shown)": "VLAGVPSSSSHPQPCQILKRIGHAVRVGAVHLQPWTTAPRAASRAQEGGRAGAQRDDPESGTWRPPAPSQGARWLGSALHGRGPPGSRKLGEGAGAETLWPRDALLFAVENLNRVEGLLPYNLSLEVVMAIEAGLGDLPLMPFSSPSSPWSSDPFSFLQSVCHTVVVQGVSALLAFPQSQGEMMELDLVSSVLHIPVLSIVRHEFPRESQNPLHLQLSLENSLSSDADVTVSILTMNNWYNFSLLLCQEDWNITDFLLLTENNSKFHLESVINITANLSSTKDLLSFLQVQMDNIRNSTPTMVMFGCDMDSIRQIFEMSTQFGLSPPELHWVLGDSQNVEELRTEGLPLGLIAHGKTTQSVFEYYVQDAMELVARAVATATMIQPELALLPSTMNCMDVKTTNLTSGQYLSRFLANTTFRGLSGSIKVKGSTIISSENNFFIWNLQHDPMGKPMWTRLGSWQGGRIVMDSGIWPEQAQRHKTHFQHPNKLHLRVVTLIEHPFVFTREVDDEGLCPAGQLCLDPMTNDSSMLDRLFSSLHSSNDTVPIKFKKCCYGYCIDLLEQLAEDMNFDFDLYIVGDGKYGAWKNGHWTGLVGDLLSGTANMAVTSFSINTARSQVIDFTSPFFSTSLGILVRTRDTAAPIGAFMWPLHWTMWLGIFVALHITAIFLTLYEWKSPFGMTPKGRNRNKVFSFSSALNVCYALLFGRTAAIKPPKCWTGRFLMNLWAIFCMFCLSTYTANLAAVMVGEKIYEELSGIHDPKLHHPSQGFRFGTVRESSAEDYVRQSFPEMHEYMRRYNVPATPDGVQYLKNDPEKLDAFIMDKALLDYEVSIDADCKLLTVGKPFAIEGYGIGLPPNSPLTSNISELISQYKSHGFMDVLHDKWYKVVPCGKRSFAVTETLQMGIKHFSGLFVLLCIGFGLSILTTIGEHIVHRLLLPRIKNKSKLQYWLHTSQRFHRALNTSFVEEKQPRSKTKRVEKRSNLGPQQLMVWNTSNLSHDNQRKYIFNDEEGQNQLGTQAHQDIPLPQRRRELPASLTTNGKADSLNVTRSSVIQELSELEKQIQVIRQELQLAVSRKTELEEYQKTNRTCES", "assay": "Glycine-evoked whole-oocyte currents of NR1/NR3A receptors, two-electrode voltage recordings in Xenopus oocytes"}, "cerebrocortical neurons": {"system": "cerebrocortical neurons", "assay": "Single-channel recording from outside-out patches of cerebrocortical neurons"}, "[1]": {"system": "cultured cerebrocortical neurons"}}, "note": "Entries after “also recorded” stand apart in the source; their conditions may differ. Read-outs that look alike come from different tables or passages of the source."}
{"smiles": "[Mg+2]", "note": "[Mg^2+]", "values": [{"measurement": "sensitivity of NR1/NR3B receptors to open-channel blocker compared to NR1/NR2A receptors", "setting": "NR1/NR3B receptors", "value": "drastically less sensitive"}, {"measurement": "sensitivity of NR1/NR3A receptors to open-channel blocker compared to NR1/NR2A receptors", "setting": "NR1/NR3A receptors", "value": "drastically less sensitive"}, {"measurement": "effect on channel activity (NPo) evoked by 2.5 μM glycine", "setting": "cerebrocortical neurons", "value": "little effect"}, {"measurement": "effect on glycine-activated single channels of cerebrocortical neurons", "setting": "cerebrocortical neurons", "value": "little effect"}]}
{"smiles": "O=C(O)c1cc(=O)c2c(Cl)cc(Cl)cc2[nH]1", "note": "[5,7-DCKA, 5,7-dichlorokynurenate]", "values": [{"measurement": "effect on glycine-evoked currents of NR1/NR3B receptors", "setting": "NR1/NR3B receptors", "value": "blocks glycine activated currents; also recorded: virtually abolished"}]}
{"smiles": "C[C@]12N[C@H](Cc3ccccc31)c1ccccc12", "note": "[MK-801]", "values": [{"measurement": "sensitivity of NR1/NR3B receptors to open-channel blocker compared to NR1/NR2A receptors", "setting": "NR1/NR3B receptors", "value": "drastically less sensitive"}, {"measurement": "sensitivity of NR1/NR3A receptors to open-channel blocker compared to NR1/NR2A receptors", "setting": "NR1/NR3A receptors", "value": "drastically less sensitive"}]}
{"smiles": "NCC(=O)O", "note": "[glycine]", "values": [{"measurement": "recordings in which glycine triggered neuronal bursting", "setting": "[1]", "value": "22 of 26"}]}
{"smiles": "CN[C@H](CC(=O)O)C(=O)O", "note": "[NMDA, N-methyl-D-aspartate]", "values": [{"measurement": "activation of NR1/NR3B receptors by the substance alone (without co-agonist)", "setting": "NR1/NR3B receptors", "value": "did not evoke glycine-independent responses; also recorded: did not evoke a glycine-independent response"}, {"measurement": "effect on glycine-evoked currents of NR1/NR3B receptors", "setting": "NR1/NR3B receptors", "value": "little or no effect; also recorded: did not potentiate glycine-evoked currents"}, {"measurement": "effect on glycine-evoked currents of NR1/NR3A receptors", "setting": "NR1/NR3A receptors", "value": "did not potentiate glycine-evoked currents"}]}
{"smiles": "NC1(C(=O)O)CC1", "note": "[ACPC, 1-aminocyclopropanecarboxylic acid]", "values": [{"measurement": "effect on glycine-evoked currents of NR1/NR3B receptors", "setting": "NR1/NR3B receptors", "value": "inhibited"}]}
{"smiles": "NC1=N[C@H](O)[C@H]2[C@H]3O[C@]4(O)O[C@@H]([C@@H](O)[C@@]2(N1)[C@@H]4O)[C@]3(O)CO", "note": "[tetrodotoxin]", "values": [{"measurement": "effect on glycine-evoked bursting response of cultured neurons", "setting": "[1]", "value": "inhibited"}]}
{"smiles": "N[C@H](CCCP(=O)(O)O)C(=O)O", "note": "[AP5, D-(−)-2-amino-5-phosphonopentanoate]", "values": [{"measurement": "effect on glycine-evoked currents of NR1/NR3B receptors at 10 μM", "setting": "NR1/NR3B receptors", "value": "little or no effect"}, {"measurement": "effect on glycine-evoked currents of NR1/NR3A receptors at 10 μM", "setting": "NR1/NR3A receptors", "value": "little or no effect"}]}
{"smiles": "N[C@@H](CCC(=O)O)C(=O)O", "note": "[L-glutamate]", "values": [{"measurement": "activation of NR1/NR3B receptors by the substance alone (without co-agonist)", "setting": "NR1/NR3B receptors", "value": "did not evoke glycine-independent responses; also recorded: did not evoke a glycine-independent response"}, {"measurement": "effect on glycine-evoked currents of NR1/NR3B receptors", "setting": "NR1/NR3B receptors", "value": "little or no effect; also recorded: did not potentiate glycine-evoked currents"}, {"measurement": "effect on glycine-evoked currents of NR1/NR3A receptors", "setting": "NR1/NR3A receptors", "value": "did not potentiate glycine-evoked currents"}]}
{"smiles": "N[C@H](CO)C(=O)O", "note": "[D-serine]", "values": [{"measurement": "activation of NR1/NR3B receptors by the substance alone (without co-agonist)", "setting": "NR1/NR3B receptors; Xenopus oocytes", "value": "evokes small NR1/NR3B currents alone; also recorded: activated NR1/NR3B receptors in the absence of glycine; also recorded: evoked small currents alone"}, {"measurement": "effect on glycine-evoked currents of NR1/NR3B receptors", "setting": "NR1/NR3B receptors; Xenopus oocytes, glycine 10 μM, NMDA or L-glutamate 100 μM unless otherwise indicated", "value": "dose-dependently inhibits currents in the presence of glycine; also recorded: inhibited the glycine response"}, {"measurement": "effect on glycine-evoked bursting response of cultured neurons", "setting": "[1]", "value": "inhibited"}, {"measurement": "glycine-responsive cells in which glycine-triggered bursting was inhibited", "setting": "[1]", "value": "5 of 22"}, {"measurement": "activation of NR1/NR3A receptors by the substance alone", "setting": "NR1/NR3A receptors; Xenopus oocytes", "value": "did not independently manifest any agonist activity"}, {"measurement": "effect on glycine-evoked currents of NR1/NR3A receptors", "setting": "NR1/NR3A receptors; Xenopus oocytes", "value": "even more potent antagonist"}, {"measurement": "effect on channel activity (NPo) evoked by 2.5 μM glycine", "setting": "cerebrocortical neurons", "value": "decreased"}, {"measurement": "effect on glycine-activated single channels of cerebrocortical neurons", "setting": "cerebrocortical neurons", "value": "inhibited"}]}
